Data taken from paper PMC9570898, “Comparing Variants of the Cell-Penetrating Peptide sC18 to Design Peptide-Drug Conjugates” (Molecules, 2022).
No end group written: not given here.

What was measured:
[1] = test system: HeLa cells; assay: Cytotoxicity (resazurin) assay in HeLa cells; conditions: 24 h, 25 µM peptide, resazurin assay
Protocol: For cell viability assay, cells were (15,000 HeLa, 17,000 MCF-7 and 12,000 HFF-1 cells per well) seeded onto a 96-well plate and grown to 80–90% confluency. Cells were incubated with several peptide concentrations in a serum-free growth medium for 24 h under standard growth conditions. For the positive control, cells were treated with 70% EtOH for 7 min. After washing with DPBS, resazurin solution (10% in serum-free media, v/v) was incubated with the cells for 1 h under standard growth conditions. The cell viability was determined relative to untreated cells by measurement of the resorufin product at 595 nm (λex = 550 nm) on a Tecan infinite M200 plate reader (Tecan Group AG, Männedorf, Switzerland).
Figure 2 (A,B): Cytotoxicity profiles of the peptides in HeLa and HEK-293 cells. Cells were cultured and incubated at pH 7.4 for 24 h with different concentrations of peptide solutions. Untreated cells served as negative control; cells treated with 70% ethanol as positive control. Values from the positive control were subtracted from all data, and the untreated cells were set to 100%; assays were performed with n = 3 in triplicate. (C): Flow cytometry analysis of HeLa or HEK-293 cells after incubating 1 and 10 µM peptide solutions for 30 min at 37 °C; assays were conducted in triplicate n = 3. (D): Confocal laser scanning microscopy analysis of 10 µM CF-labeled peptides after 30 min of incubation in HeLa cells. Green: CF-labeled peptides; blue: Hoechst 33342 nuclear stain; scale bar is 10 µm.
Figure 5 (A): Cytotoxicity assay using HFF-1 cells. Different PDC concentrations were incubated with the cells for 24 h at 37 °C and a resazurin assay was conducted. (B): Dose-response curves for peptide drug conjugates were obtained using the resazurin assay. For this, HeLa cells were treated with various conjugate concentrations (2.5–70 µM) for 24 h at 37 °C. (C): Quantification of PDC internalization in HeLa cells; 10 µM PDC solutions were incubated with cells for 30 min at 37 °C and cells were inspected using a flow cytometer; assays were conducted in triplicate n = 3.

[2] = test system: HeLa cells; assay: Fluorescence microscopy of intracellular distribution in HeLa cells; assay type: cell-based, human; conditions: 10 µM CF-labeled peptide, 30 min, confocal fluorescence microscopy
Protocol: Cells were seeded into 8-well plates (HeLa cells 35,000 and HFF-1 25,000 cells per well, respectively) and grown to 80–90% confluency. Cells were treated with 10 μM CF- or dox-labeled peptides in a serum-free medium for 30 min at 37 °C. Ten minutes prior to the end of the incubation time, nuclei were stained with Hoechst33342. The peptide solution was removed, and cells were washed five times with PBS and covered with fresh medium including FBS. Microscopic analysis was performed using an inverse confocal TCS SP8 microscope (Leica Microsystems, Wetzlar, Germany), equipped with a 63× oil-immersion objective. Images were recorded with LAS X software (LAS_X_Core_3.7.6_25997, Leica Microsystems, Wetzlar, Germany). For the GUV analysis and the uptake of the peptide-drug conjugates the Keyence fluorescence tabletop microscope BZ-X800E (Keyence, Osaka, Japan), with a 60× oil immersion lens was used. Images were recorded with Keyence software (BZ-800X_Analyzer 1.1.1.8, Keyence, Osaka: Japan) and evaluated with Fiji.
Figure 6 Fluorescence microscope analysis of 5 µM conjugates after 30 min of incubation at 37 °C in HeLa and HFF-1 cells. Red: peptides coupled to red fluorophore Doxorubicin; blue: Hoechst 33342 nuclear stain; BF: brightfield to identify living cells; scale bar is 20 µm.

[3] = test system: HEK-293 spheroids; assay: Flow cytometry of HEK-293 spheroids; assay type: cell-based, human; conditions: 10 µM CF-labeled peptides, 30 min or 1 h
Protocol: For the preparation and seeding of spheroids, cells were washed and trypsinized as described above. Cells were transferred into a fresh 15 mL centrifuge tube and centrifuged for 5 min at 300× g and rt. The supernatant was removed carefully and the pellet was resuspended in an appropriate medium supplemented with FBS. Cells were counted and a cell mixture was prepared, which would be sufficient for 100 drops (3 mL). Within this mixture a total amount of 1.5 × 10^6 cells (HEK-293 and HeLa cells) and 20% (v/v) methylcellulose (1.2 mg/mL) were required. The missing volume was filled up with an appropriate medium containing FBS; 30 μL drops were pipetted into the inverted lid of a petri dish (15,000 cells per drop), the bottom was covered with PBS and spheroids were grown in hanging drops for two or three days at 37 °C and 5% CO2, respectively.
For flow cytometry studies with tumor spheroids, the spheroids were prepared and grown as described above (4.7). […] After the spheroids started to fall apart, 850 μL of medium with FBS (indicator free) was added and the spheroids were resuspended to generate a homogenous cell suspension; 200 μL of each sample were transferred into a fresh round-bottom 96-well plate and analyzed on a Guava® easyCyte flow cytometer (Merck, Darmstadt, Germany). […]

[4] = test system: HEK293 cells; assay: Cytotoxicity (resazurin) assay in HEK293 cells; assay type: cell-based, human; conditions: 24 h

Substance: RLRKLLRKFLRK-NH2 [sC18*^R,L]
- cell viability at 25 µM [1]: ~35%
- intracellular accumulation / uptake pattern [2]: highly enriched all over the cytosol including uptake in the nuclei
- accumulation in spheroids [3]: most efficient variants
- concentration at which toxic effect started [4]: 50 µM
